Key:
[1] = system: bone marrow derived mouse MCs; test: In vitro Cath LL-37 challenge of bone marrow derived mouse MCs; type: cell-based
Procedure: (§1) (a) Bone marrow derived mouse MCs were challenged in vitro with 10 ug/mL Cath LL-37 or PBS as indicated. The cells were harvested at different time points and the mRNA was extracted and assessed by RT-PCR for tryptase, chymase and Mmp-9 expression. (b) Cell culture supernatant from bone marrow derived MCs was taken after 24 hrs of Cath LL-37 challenge. MMP and MMP-9 specific activities were measured by assessing cleavage of MMP substrate in the presence or absence of a specific MMP-9 inhibitor, as indicated. (c) Bone marrow derived MCs were treated, as indicated, for 24 hrs before collecting supernatants and assessing degranulation percentage by measuring β-hexosaminidase release. (d) Cultured mouse MCs were challenged with the indicated concentrations of Cath LL-37 for 24 or 48 hrs before supernatants were collected and the amounts of IL-6 secretion were measured. (e) Il-6 mRNA expression was measured by RT-PCR in mouse skin biopsies after 0, 1, 4, and 24 hrs of Cath LL-37 challenge in WT and MC deficient mice, as indicated. Statistics: t-test ***p<0.001 (n=3).
Primary MCs were generated from mouse bone marrow and cultured as previously written (Wang et al., 2011). MCs were cultured in Stemline® II Hematopoietic Stem Cell Expansion Medium (Sigma-Aldrich).
(§2) Total-MMP activities were determined by following previously reported study (Kanada et al., 2012). To determine MMP-9 activity, MMP-9 specific inhibitor I (Thermo Fisher Scientific, Chicago, IL) was used.
(§3) cDNA was synthesized from RNA using the iScript cDNA Synthesis Kit (BioRad, Hercules, CA) according to the manufacturer's protocol. cDNA was normalized using a NanoDrop spectrophotometer (Thermo Fisher Scientific Inc.). Probes from TagMan Gene Expression Assays (Applied Biosystems ABI, Foster City, CA) were used to analyze gene expressions with following to the manufacturer's instructions. Gapdh mRNA was used as an internal control to validate RNA for each sample. mRNA expression was calculated as the relative expression to Gapdh mRNA, and all data are presented as fold change of each control.
Degranulation percentage was assessed by measuring the activity of β-hexosaminidase in the supernatants as previously described (Wang et al., 2012).
ELISA (ELISA MAX™ Deluxe; BioLegend, San Diego, CA) was utilized to determine mouse IL-6 according to the manufacturer's instructions, normalized to total protein content.
To confirm that mast cells are responsive to direct Cath LL-37 stimulation, bone marrow derived mouse MCs were stimulated with different concentrations of Cath LL-37 at different time points. […] MMP-9 protease activity in the culture medium of MCs stimulated with Cath-LL37 for 24 hrs was confirmed by fluorescence enzymatic activity assay using an MMP specific substrate and an MMP-9 specific inhibitor (FIG. 2b).

[2] = system: WT (C57BL/6) and MC-deficient (KitWsh-/-) mice; test: Rosacea mouse model: intradermal Cath LL-37 in WT and MC-deficient (KitWsh-/-) mice; type: in vivo
Procedure: (a) Human biopsy samples from healthy and rosacea subjects were assessed for chymase and Mmp-9 mRNA expressions (n=6). (b) Photographs of the rosacea mouse model. 24 hrs after removal of the hair, the back skins of wild type (C57BL/6) and MC-deficient (KitWsh^−/−) mice were injected intradermally with 50 μl of 320 μM Cath LL-37 or filtered PBS twice a day for 2 days. Clinical observation was carried out for 72 hours. (c) Skins from WT, WT MC reconstituted KitWsh^−/− and KitWsh^−/− mice were challenged as indicated and harvested after 72 hours of observation. Mmp-9 mRNA expression in each sample was assessed by RT-PCR. (d) Assessment of MMP protease activities in WT mouse skin following challenge with PBS or the indicated amounts of Cath LL-37. (e) Skin biopsies from WT or KitWsh^−/− mice were analyzed by RT-PCR for the expression of MC proteases at 0, 1, 4, and 24 hrs after Cath LL-37 challenge. Statistics: Mann Whitney test, one-way and two-way ANOVA*p<0.05, **p<0.01, ***p<0.001 (1b-1e: n=3).
as §1
Mast cell deficient (C57BL/6-KitWsh^−/−) mice were bred. KitWsh^−/− mice bearing the W-sash (Wsh) inversion mutation have MC deficiency, but lack anemia and sterility. […] Wild type mice (C57BL/6) were utilized as control. Mice were shaved 24 hrs before intradermal injection with 50 μl of 50 μM or 320 μM of Cath LL-37 or filtered PBS (n=3), twice a day for 2 days and skin biopsies were taken after 72 hours of observation. Total RNA was extracted and purified by RNeasy Mini Kit (QIAGEN science). For the time course observation, skin biopsies of WT and MC deficient mice were taken at 1, 4, and 24 hrs after Cath LL-37 injection.
BMMC reconstitution in KitWsh−/− mice. 4×10^6 cells of C57BL/6 mature BMMCs were diluted in filtered PBS and injected into the shaved back skin of 6 week old C57BL/6− KitWsh^−/− mice (400 μl; 8×50 μl injections) intradermally. After 6 weeks, MCs were confirmed as resident cells in skin by toluidine blue staining.
as §2, §3
Cath LL-37 was injected intradermally into mast cell deficient mice (KitWsh^−/−) and compared the resulting inflammation with Wild Type (WT) mice. […]

WT and KitWsh-/- mice = test: Neuropeptide experiment: intradermal neuropeptide in WT and KitWsh-/- mice, skin mRNA by RT-PCR; type: in vivo, mouse; settings: 100 μL of 1 μM intradermally, 6 hrs
Procedure: WT and KitWsh^−/− mice were injected with PBS or 100 μL of 1 μM neuropeptide (SP, substance P; ADM-2, adrenomedullin-2; PACAP, pituitary adenylate cyclase-activating peptide) intradermally, as indicated. Skin biopsies were harvested 6 hrs after injection and mRNA expressions of (a) proteases (chymase, tryptase, Mmp-9 and Mmp-1) and (b) proinflammatory cytokines (Cxcl2 and Tnf-α) were assessed by RT-PCR. Statistics: two-way ANOVA*p<0.05, **p<0.01, ***p<0.001 (n=3).
For the neuropeptide experiment, 100 μL of 1 μM neuropeptide or PBS was injected into mice intradermally. Skin biopsies were taken 6 hrs after injection.
as §3
Rosacea flare-ups are frequently initiated by face flushing due to neuronal dysfunction and increased release of pituitary adenylate cyclase-activating peptide (PACAP) (Schwab et al., 2011). To investigate whether neuropeptides (NPs) require MC activation for the development of the inflammatory response in rosacea, 100 μL of 1 μM NP (substance P: SP, adrenomedullin-2: ADM-2, PACAP) was injected intradermally into WT and MC deficient mice. […] Moreover, these same MC enzymes can further increase the levels of free Cath LL-37 and amplify the inflammatory response.

[3] = Cath LL-37 stimulated MCs, at 5 hrs
[4] = Cath LL-37 stimulated MCs, at 5 hrs, p<0.001
[5] = MC-deficient mice after Cath LL-37
[6] = WT mice, 0, 1, 4, 24 hrs after Cath LL-37

Cath LL-37: LL-37 Cathelicidin antimicrobial peptide, C-terminal 37 amino acids of human cathelicidin
secreted IL-6 (ELISA) ([1]; 24 and 48 hrs of stimulation, Cath LL-37 20 nM and 40 nM): high levels | Klk5 mRNA expression [1, 3]: not detectable | Klk6 mRNA expression [1, 3]: not detectable | Mmp-1a mRNA expression [1, 3]: not detectable | Mmp-9 mRNA expression [1, 4]: significantly higher | Tryptase mRNA expression [1, 4]: significantly higher | chymase mRNA expression [1, 4]: significantly higher | MMP-9 protease activity in the culture medium ([1]; MCs stimulated with Cath-LL37 for 24 hrs, MMP specific substrate and MMP-9 specific inhibitor): confirmed | MC degranulation (β-hexosaminidase release) ([1]; low concentration of Cath LL-37 (20 nM), supernatants after 24 hrs): able to induce degranulation | clinical end point observation of skin ([2]; KitWsh-/- mice, intradermal Cath LL-37, at 72 hrs): did not develop any rosacea-like features | chymase expression in skin (time course) [2, 5]: not detectable | tryptase expression in skin (time course) [2, 5]: not detectable | IL-6 mRNA expression in skin ([2]; WT mice following Cath LL-37 challenge): Increased | chymase expression in skin (time course) [2, 6]: expressed immediately after injection | tryptase expression in skin (time course) [2, 6]: expressed immediately after injection | MMP activity in skin ([2]; WT mice, 50 μM and 320 μM Cath LL-37 injected): increases in a dose dependent manner | clinical end point observation of skin ([2]; WT mice, intradermal Cath LL-37 twice a day for 2 days, at 72 hrs): rosacea-like inflammation | Mmp-9 mRNA expression in skin from MC deficient mice compared with WT and WT MC-reconstituted KitWsh-/- mice ([2]; after peptide challenge, 72 hours, p<0.01 vs WT, p<0.05 vs reconstituted): significantly lower | IL-6 mRNA expression in skin ([2]; mast cell deficient mice following Cath LL-37 challenge): not in mast cell deficient mice

pituitary adenylate cyclase-activating peptide [PACAP]
Tnf-a mRNA expression in skin (WT and KitWsh-/- mice; MC deficient mice): not in MC deficient mice | Cxcl2 mRNA expression in skin (WT and KitWsh-/- mice; WT mice, p<0.01): significantly increased | Tnf-a mRNA expression in skin (WT and KitWsh-/- mice; WT mice, p<0.01): significantly increased | Tryptase mRNA expression in skin (WT and KitWsh-/- mice; WT mice, p<0.01): dramatically increased | Chymase mRNA expression in skin (WT and KitWsh-/- mice; WT mice, p<0.05): significantly increased | Mmp-1 mRNA expression in skin (WT and KitWsh-/- mice; WT mice, p<0.05): significantly increased | Mmp-9 mRNA expression in skin (WT and KitWsh-/- mice; WT mice, p<0.05): significantly increased
